# From PubChem BioAssay AID1919005 (Molecular Pharmacology Branch, DTP, NCI, 2023)
# Test system: 855422-203-R-J1-PDC complex spheroid growth
# Experiment: Anticancer human tumor 855422-203-R-J1-PDC patient-derived bladder carcinoma cell line growth inhibition [AhR]
# Details: for IC50: curve of first compound; for viability, T/C: stronger effect = lower value
# From the text: Multicellular complex tumor spheroid response to aryl hydrocarbon receptor antagonists in combination with a variety of drugs and investigational agents in selected tumor cell lines
# The current study was undertaken to assess response to aryl hydrocarbon receptor antagonists in combination with standard-of-care drugs and investigational agents in solid tumor complex spheroid models. Complex spheroids include a stromal component modeled by human endothelial cells (HUVEC) and fibroblasts modeled by human mesenchymal stem cells (MSCs). The concentration ranges selected for each drug and investigational agent were based upon clinically achievable concentrations if the clinical Cmax of the agent was known.
# Compounds. The drugs and investigational agents: BAY 2416964 (NSC825713), GNF351 (NSC835774), CH-223191 (NSC835775), CPI-455 (NSC825282), aza-TdCyd (NSC777586), decitabine (NSC127716), belinostat (NSC758774), entinostat (NSC756642), pevonedistat (NSC761192), tazemetostat (NSC777109), talazoparib (NSC765396), olaparib (NSC753686), selinexor (NSC780203), nedisertib (M3814, NSC802822), bortezomib (NSC756655), venetoclax (NSC766270), doxorubicin (NSC123127), elimusertib (BAY189344, NSC800525), ceralasertib (AZD6738, NSC777638), TAK-243 (NSC785004), alisertib (NSC759677), etoposide (NSC141540), topotecan (NSC609699), eribulin (NSC707389), gemcitabine (NSC613327), carboplatin (NSC241240), cisplatin (NSC119875), and SN-38 (NSC673596) were obtained from the National Cancer Institute (NCI) Developmental Therapeutics Program Chemical Repository (32). The FDA-approved anticancer drug set is available from the Developmental Therapeutics Program at https://dtp.cancer.gov/organization/dscb/obtaining/available plates.htm. […] The stock solutions were prepared in dimethyl sulfoxide (DMSO, Sigma-Aldrich, St. Louis, MO, cat. D2650), except for the platinum compounds which were prepared in saline (Quality Biological, Gaithersburg, MD, cat. 114-055-101), at 800-fold the tested concentration and stored at -70 degrees C prior to their use. All drugs and investigational agents were tested over a range starting from a high concentration at or near the clinical Cmax and decreasing in half-log increments. If the clinical Cmax for an agent had not been determined, the highest concentration tested was 10 microM (Table 1).
# Cell Culture. All cells were maintained in an incubator at 37 degrees C and 5% CO2 with 95% humidity. The PDC lines were cultured according to standard operating procedures established by the NCI PDMR (https://pdmr.cancer.gov). Briefly, all PDCs were thawed and cultured in Matrigel-coated flasks prepared with a working solution of 1X Ham's F-12 nutrient mix, without supplementation (Invitrogen, Waltham, MA, cat. 11765054), 100 U/mL penicillin-streptomycin (Invitrogen, cat. 15140122), and 2.5% Matrigel (Corning Inc., Corning, NY, cat. 354248) for the first three passages. All PDCs were cultured in complete DMEM/F-12 media containing advanced DMEM/F-12 (Invitrogen, cat. 12634028), 4.9% defined fetal bovine serum, heat inactivated (HyClone Laboratories Inc., Logan, UT, cat. SH30070.03HI), 389 ng/mL hydrocortisone (Sigma-Aldrich, cat. H4001), 9.7 ng/mL human EGF recombinant protein (Invitrogen, cat. PHG0313), 23.4 microg/mL adenine (Sigma-Aldrich, cat. A2786), 97.3 U/mL penicillin-streptomycin (Invitrogen, cat. 15140122), 1.9 mM L-glutamine (Invitrogen, cat. 25030081), and 9.7 microM Y-27632 dihydrochloride (Tocris Bioscience, Bristol, United Kingdom, cat. 1254). The PDCs were cultured in complete DMEM/F12 media without 10 microM Y-27632 dihydrochloride for at least two passages prior to the screen. The established cell lines NCI-H1341 and […] were cultured in DMEM/F-12, HEPES (Invitrogen, cat. 11330032), 5% defined fetal bovine serum (HyClone Laboratories Inc., cat. SH30070.03), ITS premix universal culture supplement [insulin (5 microg/mL), transferrin (5 microg/mL), and selenious acid (5 ng/mL)] […]
# [1] = second compound 0.1 µM, first compound 0.00949 µM
# [2] = second compound 0.1 µM, first compound 0.03 µM
# [3] = second compound 0.1 µM, first compound 0.0949 µM
# [4] = second compound 0.1 µM, first compound 0.3 µM
# [5] = second compound 0.316 µM, first compound 0.00949 µM
# [6] = second compound 0.316 µM, first compound 0.03 µM
# [7] = second compound 0.316 µM, first compound 0.0949 µM
# [8] = second compound 0.316 µM, first compound 0.3 µM
# [9] = second compound 1 µM, first compound 0.00949 µM
# [10] = second compound 1 µM, first compound 0.03 µM
# [11] = second compound 1 µM, first compound 0.0949 µM
# [12] = second compound 1 µM, first compound 0.3 µM
# [13] = second compound 3.16 µM, first compound 0.00949 µM
# [14] = second compound 3.16 µM, first compound 0.03 µM
# [15] = second compound 3.16 µM, first compound 0.0949 µM
# [16] = second compound 3.16 µM, first compound 0.3 µM
# [17] = second compound 10 µM, first compound 0.00949 µM
# [18] = second compound 10 µM, first compound 0.03 µM
# [19] = second compound 10 µM, first compound 0.0949 µM
# [20] = second compound 10 µM, first compound 0.3 µM
# 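Further: spheroids exposed to agents for seven days before readout.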
# 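Wherever viability, T/C is given: percent of DMSO vehicle control luminescence viability.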
compound,measurement,setting,value
Nc1ncn(C2CC(O)C(CO)O2)c(=O)n1 (stereo not given) + Cc1ccccc1N=Nc1ccc(NC(=O)c2ccnn2C)c(C)c1,IC50,second compound 0.1 µM,> 1000 nM
same,IC50,second compound 0.316 µM,> 1000 nM
same,IC50,second compound 1 µM,> 1000 nM
same,IC50,second compound 3.16 µM,> 1000 nM
same,IC50,second compound 10 µM,> 1000 nM
same,"viability, T/C","second compound 0.1 µM, first compound 0.00316 µM",94.4%
same,"viability, T/C","second compound 0.1 µM, first compound 0.01 µM",98.1%
same,"viability, T/C","second compound 0.1 µM, first compound 0.0316 µM",93.4%
same,"viability, T/C","second compound 0.1 µM, first compound 0.1 µM",98.2%
same,"viability, T/C","second compound 0.1 µM, first compound 0.316 µM",93.5%
same,"viability, T/C","second compound 0.1 µM, first compound 1 µM",86.4%
same,"viability, T/C","second compound 0.316 µM, first compound 0.00316 µM",102%
same,"viability, T/C","second compound 0.316 µM, first compound 0.01 µM",104%
same,"viability, T/C","second compound 0.316 µM, first compound 0.0316 µM",103%
same,"viability, T/C","second compound 0.316 µM, first compound 0.1 µM",94.4%
same,"viability, T/C","second compound 0.316 µM, first compound 0.316 µM",93%
same,"viability, T/C","second compound 0.316 µM, first compound 1 µM",82.8%
same,"viability, T/C","second compound 1 µM, first compound 0.00316 µM",106%
same,"viability, T/C","second compound 1 µM, first compound 0.01 µM",98.5%
same,"viability, T/C","second compound 1 µM, first compound 0.0316 µM",94%
same,"viability, T/C","second compound 1 µM, first compound 0.1 µM",93%
same,"viability, T/C","second compound 1 µM, first compound 0.316 µM",87.2%
same,"viability, T/C","second compound 1 µM, first compound 1 µM",89%
same,"viability, T/C","second compound 3.16 µM, first compound 0.00316 µM",97.4%
same,"viability, T/C","second compound 3.16 µM, first compound 0.01 µM",96.3%
same,"viability, T/C","second compound 3.16 µM, first compound 0.0316 µM",94.9%
same,"viability, T/C","second compound 3.16 µM, first compound 0.1 µM",92.9%
same,"viability, T/C","second compound 3.16 µM, first compound 0.316 µM",85.7%
same,"viability, T/C","second compound 3.16 µM, first compound 1 µM",83.5%
same,"viability, T/C","second compound 10 µM, first compound 0.00316 µM",84.7%
same,"viability, T/C","second compound 10 µM, first compound 0.01 µM",82.1%
same,"viability, T/C","second compound 10 µM, first compound 0.0316 µM",84.3%
same,"viability, T/C","second compound 10 µM, first compound 0.1 µM",84.3%
same,"viability, T/C","second compound 10 µM, first compound 0.316 µM",78%
same,"viability, T/C","second compound 10 µM, first compound 1 µM",76%
O=C(C=Cn1cnc(-c2cc(C(F)(F)F)cc(C(F)(F)F)c2)n1)NNc1cnccn1 + Cc1ccccc1N=Nc1ccc(NC(=O)c2ccnn2C)c(C)c1,IC50,second compound 0.1 µM,> 3000 nM
same,IC50,second compound 0.316 µM,> 3000 nM
same,IC50,second compound 1 µM,> 3000 nM
same,IC50,second compound 3.16 µM,706 nM
same,IC50,second compound 10 µM,726 nM
same,"viability, T/C",[1],108%
same,"viability, T/C",[2],113%
same,"viability, T/C",[3],143%
same,"viability, T/C",[4],93.1%
same,"viability, T/C","second compound 0.1 µM, first compound 0.949 µM",53.9%
same,"viability, T/C","second compound 0.1 µM, first compound 3 µM",50.1%
same,"viability, T/C",[5],109%
same,"viability, T/C",[6],118%
same,"viability, T/C",[7],151%
same,"viability, T/C",[8],83.7%
same,"viability, T/C","second compound 0.316 µM, first compound 0.949 µM",57.6%
same,"viability, T/C","second compound 0.316 µM, first compound 3 µM",48%
same,"viability, T/C",[9],109%
same,"viability, T/C",[10],136%
same,"viability, T/C",[11],179%
same,"viability, T/C",[12],78.5%
same,"viability, T/C","second compound 1 µM, first compound 0.949 µM",54.2%
same,"viability, T/C","second compound 1 µM, first compound 3 µM",48%
same,"viability, T/C",[13],111%
same,"viability, T/C",[14],107%
same,"viability, T/C",[15],154%
same,"viability, T/C",[16],69.8%
same,"viability, T/C","second compound 3.16 µM, first compound 0.949 µM",48.5%
same,"viability, T/C","second compound 3.16 µM, first compound 3 µM",37.8%
same,"viability, T/C",[17],85.8%
same,"viability, T/C",[18],101%
same,"viability, T/C",[19],112%
same,"viability, T/C",[20],58.2%
same,"viability, T/C","second compound 10 µM, first compound 0.949 µM",49.8%
same,"viability, T/C","second compound 10 µM, first compound 3 µM",45.4%
CCc1c2c(nc3ccc(O)cc13)-c1cc3c(c(=O)n1C2)COC(=O)[C@]3(O)CC + Cc1ccccc1N=Nc1ccc(NC(=O)c2ccnn2C)c(C)c1,IC50,second compound 0.1 µM,18.1 nM
same,IC50,second compound 0.316 µM,15.5 nM
same,IC50,second compound 1 µM,11.5 nM
same,IC50,second compound 3.16 µM,7.01 nM
same,IC50,second compound 10 µM,5.43 nM
same,"viability, T/C","second compound 0.1 µM, first compound 0.000949 µM",107%
same,"viability, T/C","second compound 0.1 µM, first compound 0.003 µM",98.3%
same,"viability, T/C",[1],75.5%
same,"viability, T/C",[2],29.6%
same,"viability, T/C",[3],17.4%
same,"viability, T/C",[4],11.5%
same,"viability, T/C","second compound 0.316 µM, first compound 0.000949 µM",98.3%
same,"viability, T/C","second compound 0.316 µM, first compound 0.003 µM",93.7%
same,"viability, T/C",[5],68.1%
same,"viability, T/C",[6],25.2%
same,"viability, T/C",[7],14.6%
same,"viability, T/C",[8],9.09%
same,"viability, T/C","second compound 1 µM, first compound 0.000949 µM",102%
same,"viability, T/C","second compound 1 µM, first compound 0.003 µM",95.3%
same,"viability, T/C",[9],55.5%
same,"viability, T/C",[10],20.7%
same,"viability, T/C",[11],14%
same,"viability, T/C",[12],9.24%
same,"viability, T/C","second compound 3.16 µM, first compound 0.000949 µM",92.3%
same,"viability, T/C","second compound 3.16 µM, first compound 0.003 µM",81.8%
same,"viability, T/C",[13],36.8%
same,"viability, T/C",[14],21.7%
same,"viability, T/C",[15],13%
same,"viability, T/C",[16],7.68%
same,"viability, T/C","second compound 10 µM, first compound 0.000949 µM",76.5%
same,"viability, T/C","second compound 10 µM, first compound 0.003 µM",73.4%
same,"viability, T/C",[17],28.1%
same,"viability, T/C",[18],22%
same,"viability, T/C",[19],13.7%
same,"viability, T/C",[20],9.18%
